This note sets out measurements from patent US20180290977A1, “KDM4 INHIBITORS” (Albert-Ludwigs-University Freiburg, priority 2017, published 2018).

SMILES strings stand for the structures. Like-named read-outs stand apart in the source and are kept apart here.

By IC50 is commonly meant the concentration needed to halve the response being measured. By AUC is commonly meant the area under the concentration-time curve, a measure of exposure.

One data set has as its target T1, KDM2B (Homo sapiens, UniProt Q8NHM5).
T1 sequence (Q8NHM5 1-1336): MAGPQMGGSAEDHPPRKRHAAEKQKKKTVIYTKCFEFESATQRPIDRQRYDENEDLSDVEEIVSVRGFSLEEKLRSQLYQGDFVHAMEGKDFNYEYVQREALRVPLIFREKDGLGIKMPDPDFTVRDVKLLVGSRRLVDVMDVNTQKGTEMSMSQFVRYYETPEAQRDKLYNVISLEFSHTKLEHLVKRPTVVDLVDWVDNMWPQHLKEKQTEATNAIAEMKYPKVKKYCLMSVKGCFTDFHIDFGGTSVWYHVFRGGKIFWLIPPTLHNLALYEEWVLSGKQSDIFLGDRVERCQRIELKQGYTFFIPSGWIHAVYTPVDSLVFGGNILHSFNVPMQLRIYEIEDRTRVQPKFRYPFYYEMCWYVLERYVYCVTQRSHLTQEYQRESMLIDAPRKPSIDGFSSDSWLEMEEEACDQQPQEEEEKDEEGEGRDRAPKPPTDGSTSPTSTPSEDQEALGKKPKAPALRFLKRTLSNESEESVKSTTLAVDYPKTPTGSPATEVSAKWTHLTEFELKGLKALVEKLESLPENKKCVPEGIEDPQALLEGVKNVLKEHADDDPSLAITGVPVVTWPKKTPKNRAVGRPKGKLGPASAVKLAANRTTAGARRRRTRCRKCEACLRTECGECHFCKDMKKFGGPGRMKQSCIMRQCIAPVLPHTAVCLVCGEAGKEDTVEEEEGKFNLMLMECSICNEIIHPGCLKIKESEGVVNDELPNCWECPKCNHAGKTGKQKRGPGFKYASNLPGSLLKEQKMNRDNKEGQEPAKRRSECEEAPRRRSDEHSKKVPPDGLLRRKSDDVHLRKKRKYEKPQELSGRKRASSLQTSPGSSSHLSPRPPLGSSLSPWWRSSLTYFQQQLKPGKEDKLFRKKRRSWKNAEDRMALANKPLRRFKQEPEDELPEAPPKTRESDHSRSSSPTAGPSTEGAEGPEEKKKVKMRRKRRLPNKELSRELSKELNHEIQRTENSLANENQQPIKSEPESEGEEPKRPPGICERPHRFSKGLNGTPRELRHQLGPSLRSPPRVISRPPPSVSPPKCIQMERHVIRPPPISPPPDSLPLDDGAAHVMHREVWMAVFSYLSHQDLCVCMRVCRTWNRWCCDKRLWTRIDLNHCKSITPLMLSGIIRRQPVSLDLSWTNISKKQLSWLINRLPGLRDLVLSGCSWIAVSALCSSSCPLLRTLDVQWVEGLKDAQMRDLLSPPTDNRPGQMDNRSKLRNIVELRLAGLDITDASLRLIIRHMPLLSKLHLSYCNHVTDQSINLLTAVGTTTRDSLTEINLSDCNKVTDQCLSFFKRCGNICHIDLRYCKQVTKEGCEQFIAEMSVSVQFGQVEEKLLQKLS
Kind of data set: KDM demethylase inhibition (IC50). In kind it is biochemical.

The target in a further data set is T2, KDM4C (Homo sapiens, UniProt Q9H3R0).
T2 sequence (Q9H3R0 1-1056): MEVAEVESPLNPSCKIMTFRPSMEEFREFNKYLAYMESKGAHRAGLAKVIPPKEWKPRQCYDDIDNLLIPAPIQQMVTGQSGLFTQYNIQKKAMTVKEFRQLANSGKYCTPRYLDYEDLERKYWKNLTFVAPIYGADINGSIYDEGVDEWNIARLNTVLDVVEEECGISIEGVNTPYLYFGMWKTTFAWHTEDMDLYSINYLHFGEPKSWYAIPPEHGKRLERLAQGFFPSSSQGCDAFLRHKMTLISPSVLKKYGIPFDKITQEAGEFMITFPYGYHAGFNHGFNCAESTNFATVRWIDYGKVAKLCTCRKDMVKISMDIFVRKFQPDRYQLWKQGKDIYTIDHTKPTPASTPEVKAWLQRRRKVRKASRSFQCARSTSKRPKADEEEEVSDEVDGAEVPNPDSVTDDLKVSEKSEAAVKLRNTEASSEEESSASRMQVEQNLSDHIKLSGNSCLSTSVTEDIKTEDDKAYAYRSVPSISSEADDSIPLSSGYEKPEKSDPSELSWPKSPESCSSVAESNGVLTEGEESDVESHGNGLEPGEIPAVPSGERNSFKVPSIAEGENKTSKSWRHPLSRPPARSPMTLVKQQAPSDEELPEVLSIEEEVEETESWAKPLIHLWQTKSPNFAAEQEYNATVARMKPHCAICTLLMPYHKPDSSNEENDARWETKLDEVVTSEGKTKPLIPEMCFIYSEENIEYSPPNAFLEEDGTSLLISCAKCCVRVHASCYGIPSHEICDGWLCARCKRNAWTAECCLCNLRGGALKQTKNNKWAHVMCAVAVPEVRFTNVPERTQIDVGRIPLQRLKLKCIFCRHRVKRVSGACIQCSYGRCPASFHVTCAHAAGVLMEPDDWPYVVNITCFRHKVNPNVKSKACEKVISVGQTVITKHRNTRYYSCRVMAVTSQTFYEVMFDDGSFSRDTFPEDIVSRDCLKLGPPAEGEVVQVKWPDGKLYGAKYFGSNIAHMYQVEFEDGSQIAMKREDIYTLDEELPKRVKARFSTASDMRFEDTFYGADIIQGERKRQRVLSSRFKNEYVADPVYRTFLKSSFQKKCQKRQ
Briefly: KDM demethylase inhibition (IC50). In kind it is biochemical.

For another data set, the target named is KDM6A (Homo sapiens, UniProt O15550). Briefly: KDM demethylase inhibition (IC50). In kind it is biochemical.
The nature of data set [1]: Pharmacokinetic study iv/po. In kind it is in vivo. The note with it: Dose iv/po 5/10 mg/kg.
A further data set addresses KDM5B (Homo sapiens, UniProt Q9UGL1). Briefly: KDM demethylase inhibition (IC50). In kind it is biochemical.

KDM5B, sequence (Q9UGL1 whole entry): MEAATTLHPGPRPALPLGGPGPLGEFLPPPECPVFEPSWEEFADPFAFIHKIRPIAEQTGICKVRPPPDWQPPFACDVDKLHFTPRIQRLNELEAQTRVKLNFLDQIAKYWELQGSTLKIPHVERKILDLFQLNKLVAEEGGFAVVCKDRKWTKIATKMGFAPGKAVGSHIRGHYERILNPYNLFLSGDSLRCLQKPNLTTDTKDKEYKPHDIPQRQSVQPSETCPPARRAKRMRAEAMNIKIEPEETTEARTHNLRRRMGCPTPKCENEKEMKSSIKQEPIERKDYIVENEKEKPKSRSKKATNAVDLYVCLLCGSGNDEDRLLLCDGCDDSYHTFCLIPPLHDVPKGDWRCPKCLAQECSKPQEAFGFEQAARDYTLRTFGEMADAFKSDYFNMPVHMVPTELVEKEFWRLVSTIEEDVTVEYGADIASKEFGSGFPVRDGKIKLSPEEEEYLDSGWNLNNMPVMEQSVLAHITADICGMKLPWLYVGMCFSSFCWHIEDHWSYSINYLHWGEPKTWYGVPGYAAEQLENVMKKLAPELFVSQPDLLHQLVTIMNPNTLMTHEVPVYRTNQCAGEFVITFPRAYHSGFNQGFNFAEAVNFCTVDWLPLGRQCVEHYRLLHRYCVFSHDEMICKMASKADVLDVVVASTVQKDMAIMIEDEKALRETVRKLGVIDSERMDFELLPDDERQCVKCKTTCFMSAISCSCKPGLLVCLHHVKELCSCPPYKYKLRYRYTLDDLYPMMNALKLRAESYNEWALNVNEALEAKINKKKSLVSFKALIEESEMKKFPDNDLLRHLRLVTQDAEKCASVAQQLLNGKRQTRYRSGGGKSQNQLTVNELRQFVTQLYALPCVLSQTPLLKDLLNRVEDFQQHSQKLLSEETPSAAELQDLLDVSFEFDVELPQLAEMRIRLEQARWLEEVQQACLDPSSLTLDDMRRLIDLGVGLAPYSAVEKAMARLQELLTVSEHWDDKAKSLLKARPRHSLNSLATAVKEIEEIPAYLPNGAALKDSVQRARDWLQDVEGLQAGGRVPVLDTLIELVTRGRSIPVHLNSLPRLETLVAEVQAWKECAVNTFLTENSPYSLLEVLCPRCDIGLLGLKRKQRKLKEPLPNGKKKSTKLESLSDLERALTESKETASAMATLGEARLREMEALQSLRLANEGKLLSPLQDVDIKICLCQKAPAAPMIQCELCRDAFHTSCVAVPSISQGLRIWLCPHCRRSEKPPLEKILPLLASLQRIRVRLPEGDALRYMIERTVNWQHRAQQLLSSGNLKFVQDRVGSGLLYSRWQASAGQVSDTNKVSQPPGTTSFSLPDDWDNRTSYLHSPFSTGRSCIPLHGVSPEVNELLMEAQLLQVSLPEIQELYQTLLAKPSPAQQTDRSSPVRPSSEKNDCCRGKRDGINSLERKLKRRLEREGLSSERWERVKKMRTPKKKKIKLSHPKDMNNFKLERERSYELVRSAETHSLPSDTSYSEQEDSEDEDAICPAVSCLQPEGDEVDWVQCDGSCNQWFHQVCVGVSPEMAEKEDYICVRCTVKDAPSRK
KDM6A, sequence (O15550 whole entry): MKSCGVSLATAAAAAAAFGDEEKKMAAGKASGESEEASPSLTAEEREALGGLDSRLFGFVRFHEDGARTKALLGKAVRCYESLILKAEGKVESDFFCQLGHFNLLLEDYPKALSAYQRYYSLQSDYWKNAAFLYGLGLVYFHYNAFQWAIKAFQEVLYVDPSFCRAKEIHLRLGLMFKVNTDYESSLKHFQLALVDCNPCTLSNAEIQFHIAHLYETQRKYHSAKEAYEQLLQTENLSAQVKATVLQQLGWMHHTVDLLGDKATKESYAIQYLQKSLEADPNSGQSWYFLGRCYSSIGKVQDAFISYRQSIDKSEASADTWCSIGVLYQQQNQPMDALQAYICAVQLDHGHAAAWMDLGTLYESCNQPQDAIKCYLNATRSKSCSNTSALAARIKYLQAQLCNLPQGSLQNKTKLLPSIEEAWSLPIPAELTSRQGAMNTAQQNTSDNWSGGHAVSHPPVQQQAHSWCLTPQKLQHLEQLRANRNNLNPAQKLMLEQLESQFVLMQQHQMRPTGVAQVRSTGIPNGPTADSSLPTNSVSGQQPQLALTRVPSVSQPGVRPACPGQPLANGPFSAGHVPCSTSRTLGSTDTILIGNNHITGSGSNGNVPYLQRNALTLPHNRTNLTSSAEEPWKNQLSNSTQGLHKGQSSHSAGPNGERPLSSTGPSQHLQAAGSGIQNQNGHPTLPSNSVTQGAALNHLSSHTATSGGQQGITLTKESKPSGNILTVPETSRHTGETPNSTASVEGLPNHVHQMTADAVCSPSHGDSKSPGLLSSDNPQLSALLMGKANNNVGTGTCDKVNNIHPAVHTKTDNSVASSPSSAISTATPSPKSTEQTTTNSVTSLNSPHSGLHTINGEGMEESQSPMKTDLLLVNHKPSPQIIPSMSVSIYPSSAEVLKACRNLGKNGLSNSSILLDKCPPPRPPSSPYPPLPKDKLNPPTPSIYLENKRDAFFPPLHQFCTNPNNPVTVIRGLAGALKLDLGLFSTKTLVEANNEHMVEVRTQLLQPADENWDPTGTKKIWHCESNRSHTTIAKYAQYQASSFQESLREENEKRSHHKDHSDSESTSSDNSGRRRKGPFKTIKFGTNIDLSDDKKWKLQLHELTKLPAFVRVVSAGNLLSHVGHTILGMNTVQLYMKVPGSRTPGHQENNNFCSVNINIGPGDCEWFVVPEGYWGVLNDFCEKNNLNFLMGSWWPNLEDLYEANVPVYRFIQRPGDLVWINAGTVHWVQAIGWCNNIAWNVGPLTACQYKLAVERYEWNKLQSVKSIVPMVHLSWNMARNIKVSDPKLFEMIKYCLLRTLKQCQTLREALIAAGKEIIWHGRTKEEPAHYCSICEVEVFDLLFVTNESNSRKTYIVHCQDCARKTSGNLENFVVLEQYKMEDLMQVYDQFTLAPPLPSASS

For `CN(c1ccccc1)c1ccc2c(c1)CCC[C@H]2CNc1cnccc1C(=O)O` [Compound I, 3-({[(1R)-6-[methyl(phenyl)amino]-1,2,3,4-tetrahydronaphthalen-1-yl]methyl}amino)pyridine-4-carboxylic Acid], the IC50 at KDM2B was above 10 µM; at KDM4C (read-out: Compound I IC50), 35 nM; at KDM4C (read-out: IC50, demethylase activity), below 105 nM; on KDM6A, above 10 µM; on KDM5B (read-out: Compound I IC50, KDM5B) it was 750 nM. The “po 1/2” value in data set [1] came to 2.57 h. Moreover, in data set [1] (plasma, 5 mg/kg, read-out: Vz (mL/kg), apparent volume of distribution during terminal phase), the Vd turned out to be 666 mL/kg. Also, the AUC in data set [1] (plasma) was 10400 ng·h/mL. Also, on KDM5B, the “effect on the demethylase activity of KDM5B” value is given as “weak effect”.
